Read-outs that look alike come from different tables or passages of the source. *1 amine or outer side, *2 acyl side, *3 side chain or, on linkers, in order; H or OH if unused. Where a SMILES comes first, the peptide text is derived from it. Bridges are numbered along the chain shown (N, C = ends). [ ]: non-standard residue; d: D form. Trp(2-yl) = O=C([C@H](Cc1c([*:3])[nH]c2ccccc12)N[*:1])[*:2]; hCys = N[C@@H](CCS)C(=O)O; CH2 = C([*:1])[*:2]; Ahx = NCCCCCC(=O)O

Data set [1] can be described thus: Solubility observations during FP and ITC testing. It counts as physicochemical. The note with it: observed during FP or ITC testing.
Another data set in a line: Serum stability test. Type of data set: in vitro ADME. The note with it: 20% human serum in PBS, 37 °C, monitored over 24 h. Here is the method: 1.6.3 Serum stability test
500 μL of PBS buffer supplemented with 20% (v/v) of human serum was allocated into an Eppendorf tube and temperature kept at 37 °C for 15 minutes before commencing the experiment. 5 µL of the peptide from 10 mM stock solution in DMSO was added. Caffeine was added as an internal standard (10 μL of a 15 mg/mL solution in MQ water). At specific intervals, 50 µL of the reaction mixture was taken and quenched with 100 µL of a 1:1 mixture of 96% Ethanol:DMSO. The suspension was spun at 13400 g for 10 minutes. 100 μL of the supernatant was analysed using C-18 HPLC with an eluting gradient 5-95% MeCN (0.05% TFA) in water (0.05% TFA) over 15 minutes (90 μL injection volume).
Percentage of intact starting peptide was monitored over 24 h (calculated as the ratio of the area of […]
the peak corresponding to the intact peptide to the area of the peak of caffeine). The experiment was […]
1 M. M. Wiedmann, Y. S. Tan, Y. Wu, S. Aibara, W. Xu, H. F. Sore, C. S. Verma, L. Itzhaki, M.
Stewart, J. D. Brenton and D. R. Spring, Angew. Chemie Int. Ed., 2017, 56, 524–529.
3 G. T. Potter, G. C. Jayson, G. J. Miller and J. M. Gardiner, J. Org. Chem., 2016, 81, 3443–3446.
4 J. Iegre, P. Brear, D. J. Baker, Y. S. Tan, E. L. Atkinson, H. F. Sore, D. H. O’ Donovan, C. S. Verma,
7 C. Puig Duran, F. Albericio Palomera, M. Gongora Benitez, M. Paradis Bas, L. Miret Casals, I. […]

In another data set the test system is HeLa cells. Nature of the data set: MTT cell viability assay in HeLa cells. It counts as cell-based. Conditions: HeLa cells, MTT, 48 h. Here is the method:
(§1) HeLa cells were maintained in 5% CO2 in DMEM supplemented with 10% FBS, 2 mM L-glutamine, 100 U/mL penicillin and […] streptomycin, in an atmosphere containing 5% CO2.
(§2) Cells were regularly passed and used for experiments within one month after thawing (10-15 […]
(§3) 1.6.2 Cell viability assay
(§4) Cell viability was assayed by 3-(4,5-dimethylthiazol-2-yl)-2,5-diphenyltetrazolium bromide (MTT) colorimetric assay. HeLa cells were plated on 96-well plates (20,000 cells per well in 100 μL). After 24 h, cells were treated with different concentrations of test compounds or vehicle alone (DMSO). One hour before the end of the incubations, 10 μL of MTT solution (5 mg/mL in PBS) were added to each well. Formazan crystals (proportional to the number of viable cells) were then dissolved by the addition of 20 μL/well of a pH 4.7 solution containing 20% (w:v) SDS, 50% (v:v) N,N-dimethylformamide, 2% (v:v) acetic acid, and 25 mM HCl, and quantified by recording the absorbance at 570 nm using an Infinite M200 PRO plate reader (TECAN, Life Sciences). […]

A short description of data set [2]: MTT cell viability assay in HeLa cells. It counts as cell-based. The note with it: human. Here is the method:
as §1, §2, §3, §4
(In general: Tetrazolium assays rely on reduction of a dye to a coloured formazan, in cell work by metabolically active cells.)

For `CC(=O)N[C@H]1CSCSC[C@@H](C(N)=O)NC(=O)[C@H](CCCCN)NC(=O)[C@H](Cc2ccccc2)NC(=O)CNC(=O)[C@H](Cc2ccc(O)cc2)NC(=O)[C@H](CC(C)C)NC(=O)[C@H](CCCNC(=N)N)NC1=O` [Peptide P5C6] (Ac-CRLYGFKC-NH2; linker 1-8 via CH2), in data set [1], the “Solubility (observation in words)” value was “poor solubility”.
For `CC(=O)N[C@@H](CCS)C(=O)N[C@@H](CCCNC(=N)N)C(=O)N[C@@H](CC(C)C)C(=O)N[C@@H](Cc1ccc(O)cc1)C(=O)NCC(=O)N[C@@H](Cc1ccccc1)C(=O)N[C@@H](CCCCN)C(=O)N[C@@H](Cc1c[nH]c2ccccc12)C(N)=O` [Peptide P8] (Ac-[hCys]RLYGFKW-NH2), in the data set “Serum stability test”, the “Serum stability (in words)” value was “fully had degraded after 1 h”.
Consider `CC(C)C[C@@H]1NC(=O)[C@H](CCCNC(=N)N)NC(=O)[C@@H](NC(=O)CCCCCNC(=O)CCCCCNC(=O)[C@H](CCCNC(=N)N)NC(=O)[C@H](CCCNC(=N)N)NC(=O)[C@@H](N)CCCNC(=N)N)CCSc2[nH]c3ccccc3c2C[C@@H](C(N)=O)NC(=O)[C@H](CCCCN)NC(=O)[C@H](Cc2ccccc2)NC(=O)CNC(=O)[C@H](Cc2ccc(O)cc2)NC1=O` [Peptide R3-P8C9] (H-RRR[Ahx][Ahx][hCys]RLYGFK[Trp(2-yl)]-NH2; thioether 6-13), for which the “Effect on cell viability (in words)” value with HeLa cells is “large reduction in cell viability”. In data set [2], the viability – broadly, the share of living cells, or the viability signal relative to a control – at 48 h, 50 µM was determined as 66 ± 5% and the viability at 48 h, 100 µM stood at 54 ± 4%.
For `CC(C)C[C@@H]1NC(=O)[C@H](CCCNC(=N)N)NC(=O)[C@@H](NC(=O)CCCCCNC(=O)CCCCCNC(=O)[C@H](CCC(N)=O)NC(=O)[C@@H]2CCCN2C(=O)[C@@H]2CCCN2C(=O)[C@H](CCCNC(=N)N)NC(=O)[C@H](CCCNC(=N)N)NC(=O)[C@H](CCCNC(=N)N)NC(=O)[C@H](CCC(N)=O)NC(=O)[C@H](CCCNC(=N)N)NC(=O)[C@H](CCCNC(=N)N)NC(=O)[C@H](CCCCN)NC(=O)[C@H](CCCCN)NC(=O)[C@H](CCCNC(=N)N)NC(=O)CN)CCSc2[nH]c3ccccc3c2C[C@@H](C(N)=O)NC(=O)[C@H](CCCCN)NC(=O)[C@H](Cc2ccccc2)NC(=O)CNC(=O)[C@H](Cc2ccc(O)cc2)NC1=O` [TAT-P8C9] (H-GRKKRRQRRRPPQ[Ahx][Ahx][hCys]RLYGFK[Trp(2-yl)]-NH2; thioether 16-23), in the data set with HeLa cells, the “Effect on cell viability (in words)” value is “large reduction in cell viability”. Also, the viability at 48 h, 50 µM in data set [2] (HeLa cells, 48 h, 50 μM compound, ±standard deviation, read-out: Cell viability (%) 50 μM compound) stood at 66 ± 4%. For the same molecule, the viability at 48 h, 100 µM in data set [2] (HeLa cells, 48 h, 100 μM compound, ±standard deviation, read-out: Cell viability (%) 100 μM compound) came out at 26 ± 7%.

For the origin of these results see article PMC9004346, “Development of small cyclic peptides targeting the CK2α/β interface” (Chemical Communications (Cambridge, England), 2022).
